# Measured values as given in the supplement of paper PMC10307832.
# Compound: CC1=C(C(=NN1)C)CC2=C(C3=C(S2)N(C(=O)N(C3=O)C)CC(C)C)C(=O)N4C[C@@H](CO4)O + O=C(c1cc(Cc2n[nH]c(=O)c3ccccc23)ccc1F)N1CCN(C(=O)C2CC2)CC1 [Olaparib] (partner 8 µM)
# Assay: relative viability (nuclei count vs DMSO), 5 days (fraction); higher = more cells survive
# Settings: first compound 0.0025 µM
# In short: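 The day after seeding in 1536-well plates, lung cancer cell lines were treated by pin tool with a single drug, or with a fixed anchor-drug dose together with five library-drug doses (not always all listed) in √10 steps. After 5 days, a combined fix-and-stain solution (final 0.05% Triton X-100, 1% formaldehyde, 1 ug/ml Hoechst) was added. Nuclei counted on 4× images gave relative viability as treated counts over vehicle counts, reported as the median of duplicate plates.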
row,Cell Line,relative viability
1,NCI-H2405,0.876
2,HOP-62,0.408
3,HCC-44,1.02
4,LU99A,0.224
5,BEN,0.868
6,HARA,1.1
7,HCC-78,0.826
8,NCI-H322M,0.448
9,LCLC-97TM1,0.492
10,A-427,0.762
11,NCI-H441,0.648
12,NCI-H1734,0.663
13,NCI-H460,0.419
14,NCI-H2347,0.574
15,NCI-H1395,0.552
16,201T,0.852

row,Cell Line,relative viability
1,NCI-H1915,0.259
2,HCC-827,0.641
3,LXF-289,1.06
4,NCI-H23,0.39
5,NCI-H647,0.626
6,NCI-H1651,0.178
7,EPLC-272H,0.69
8,NCI-H1792,0.542
9,NCI-H1355,0.889
10,NCI-H3122,0.62
11,NCI-H1437,0.624
12,NCI-H1755,0.92
13,HCC-15,0.721
14,NCI-H1793,0.896
15,PC-14,0.295
16,EKVX,1.02

# Same assay, conditions: first compound 0.007906 µM
row,Cell Line,relative viability
1,NCI-H2405,0.806
2,HOP-62,0.434
3,HCC-44,1
4,LU99A,0.262
5,BEN,0.709
6,HARA,0.76
7,HCC-78,1
8,NCI-H322M,0.726
9,LCLC-97TM1,0.519
10,A-427,0.769
11,NCI-H441,0.529
12,NCI-H1734,0.635
13,NCI-H460,0.516
14,NCI-H2347,0.624
15,NCI-H1395,0.408
16,201T,0.815

row,Cell Line,relative viability
1,NCI-H1915,0.251
2,HCC-827,0.629
3,LXF-289,1
4,NCI-H23,0.322
5,NCI-H647,0.415
6,NCI-H1651,0.172
7,EPLC-272H,0.778
8,NCI-H1792,0.384
9,NCI-H1355,0.806
10,NCI-H3122,0.659
11,NCI-H1437,0.622
12,NCI-H1755,0.897
13,HCC-15,0.707
14,NCI-H1793,0.975
15,PC-14,0.203
16,EKVX,0.969

# Same assay, conditions: first compound 0.025 µM
row,Cell Line,relative viability
1,NCI-H2405,0.885
2,HOP-62,0.545
3,HCC-44,0.952
4,LU99A,0.246
5,BEN,0.684
6,HARA,0.689
7,HCC-78,0.92
8,NCI-H322M,0.702
9,LCLC-97TM1,0.404
10,A-427,0.706
11,NCI-H441,0.521
12,NCI-H1734,0.576
13,NCI-H460,0.418
14,NCI-H2347,0.468
15,NCI-H1395,0.38
16,201T,0.828

row,Cell Line,relative viability
1,NCI-H1915,0.266
2,HCC-827,0.58
3,LXF-289,1.07
4,NCI-H23,0.311
5,NCI-H647,0.481
6,NCI-H1651,0.205
7,EPLC-272H,0.771
8,NCI-H1792,0.356
9,NCI-H1355,0.783
10,NCI-H3122,0.64
11,NCI-H1437,0.635
12,NCI-H1755,0.861
13,HCC-15,0.69
14,NCI-H1793,0.829
15,PC-14,0.239
16,EKVX,0.892

# Same assay, conditions: first compound 0.07906 µM
row,Cell Line,relative viability
1,NCI-H2405,0.749
2,HOP-62,0.425
3,HCC-44,0.891
4,LU99A,0.193
5,BEN,0.806
6,HARA,0.542
7,HCC-78,0.854
8,NCI-H322M,0.659
9,LCLC-97TM1,0.38
10,A-427,0.729
11,NCI-H441,0.478
12,NCI-H1734,0.511
13,NCI-H460,0.355
14,NCI-H2347,0.508
15,NCI-H1395,0.342
16,201T,0.845

row,Cell Line,relative viability
1,NCI-H1915,0.249
2,HCC-827,0.612
3,LXF-289,1.03
4,NCI-H23,0.339
5,NCI-H647,0.647
6,NCI-H1651,0.193
7,EPLC-272H,0.844
8,NCI-H1792,0.383
9,NCI-H1355,0.738
10,NCI-H3122,0.618
11,NCI-H1437,0.643
12,NCI-H1755,0.85
13,HCC-15,0.697
14,NCI-H1793,0.768
15,PC-14,0.25
16,EKVX,0.775

# Same assay, conditions: first compound 0.25 µM
row,Cell Line,relative viability
1,NCI-H2405,0.875
2,HOP-62,0.515
3,HCC-44,1.05
4,LU99A,0.229
5,BEN,0.712
6,HARA,0.81
7,HCC-78,0.798
8,NCI-H322M,0.736
9,LCLC-97TM1,0.414
10,A-427,0.886
11,NCI-H441,0.593
12,NCI-H1734,0.53
13,NCI-H460,0.459
14,NCI-H2347,0.587
15,NCI-H1395,0.403
16,201T,0.853
17,NCI-H1915,0.255
18,HCC-827,0.612
19,LXF-289,1.25
20,NCI-H23,0.376
21,NCI-H647,0.685
22,NCI-H1651,0.199
23,EPLC-272H,1.09
24,NCI-H1792,0.246
25,NCI-H1355,0.724
26,NCI-H3122,0.628
27,NCI-H1437,0.613
28,NCI-H1755,0.902
29,HCC-15,0.766
